Source: paper PMC8119466, “A screen of FDA-approved drugs identifies inhibitors of protein tyrosine phosphatase 4A3 (PTP4A3 or PRL-3)” (Scientific Reports, 2021)
Where a name gives a salt, the structure may show the parent alone. Read-outs that look alike come from different tables or passages of the source.

Assays:
Type in all cases: biochemical
recombinant PRL-1 = biological target: T1, recombinant PRL-1 (Homo sapiens, UniProt Q93096); test: In vitro phosphatase assay (DiFMUP hydrolysis), PRL-1; also: test concentration or dose not given here
T1 construct: 6xHis (N, cleaved yes); made in house; host or cells: E. coli One Shot BL21 Star
T1 sequence (Q93096 1-173): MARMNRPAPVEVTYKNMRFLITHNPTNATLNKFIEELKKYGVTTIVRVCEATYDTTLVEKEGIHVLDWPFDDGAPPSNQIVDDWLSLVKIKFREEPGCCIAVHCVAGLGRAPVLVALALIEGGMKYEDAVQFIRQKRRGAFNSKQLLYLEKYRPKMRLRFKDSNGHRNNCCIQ

recombinant PRL-2 = biological target: T2, recombinant PRL-2 (Homo sapiens, UniProt Q12974); test: In vitro phosphatase assay (DiFMUP hydrolysis), PRL-2;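 also: PRL-2 activity read as DiFMUP hydrolysis after 20 min at room temperature with drug, enzyme first pre-reduced at 4 °C for 20 min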
T2 construct: 6xHis (N, cleaved yes); made in house; host or cells: E. coli One Shot BL21 Star
T2 sequence (Q12974 1-167): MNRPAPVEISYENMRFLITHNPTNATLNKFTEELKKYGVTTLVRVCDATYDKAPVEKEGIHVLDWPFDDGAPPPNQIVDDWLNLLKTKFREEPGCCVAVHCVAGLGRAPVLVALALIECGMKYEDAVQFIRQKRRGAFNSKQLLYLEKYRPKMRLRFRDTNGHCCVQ

recombinant PRL-3 = biological target: T3, recombinant PRL-3 (Homo sapiens, UniProt O75365); test: In vitro phosphatase assay (DiFMUP hydrolysis), PRL-3; also: test concentration or dose not given here
T3 construct: 6xHis (N, cleaved yes); made in house; host or cells: E. coli One Shot BL21 Star
T3 sequence (O75365 whole entry): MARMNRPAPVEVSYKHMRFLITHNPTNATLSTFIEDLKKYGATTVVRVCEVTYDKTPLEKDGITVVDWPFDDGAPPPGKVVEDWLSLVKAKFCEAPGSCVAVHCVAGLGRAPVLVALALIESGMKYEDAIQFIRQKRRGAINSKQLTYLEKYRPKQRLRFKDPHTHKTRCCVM

[1] = FDA-approved drug screen, compared to DMSO

Structure (SMILES) | % Phosphatase Activity (compared to DMSO) PRL-1 (recombinant PRL-1; [1]) [%] | % Phosphatase Activity (compared to DMSO) PRL-2 (recombinant PRL-2; [1]) [%] | % Phosphatase Activity (compared to DMSO) PRL-3 (recombinant PRL-3; [1]) [%] | % Phosphatase Activity (compared to DMSO) PRL-1 (recombinant PRL-1) [%] | % Phosphatase Activity (compared to DMSO) PRL-2 (recombinant PRL-2) [%] | % Phosphatase Activity (compared to DMSO) PRL-3 (recombinant PRL-3) [%]
Nc1ccn([C@@H]2CS[C@H](CO)O2)c(=O)n1 [Lamivudine] | 104 | 113 | 92 | – | – | –
Nc1nnc(-c2cccc(Cl)c2Cl)c(N)n1 [Lamotrigine] | 121 | 110 | 83 | – | – | –
Cc1c(OCC(F)(F)F)ccnc1C[S+]([O-])c1nc2ccccc2[nH]1 (stereo not drawn) [Lansoprazole] | 94 | 92 | 59 | – | – | –
CS(=O)(=O)CCNCc1ccc(-c2ccc3ncnc(Nc4ccc(OCc5cccc(F)c5)c(Cl)c4)c3c2)o1.Cc1ccc(S(=O)(=O)O)cc1.Cc1ccc(S(=O)(=O)O)cc1 [Lapatinib (GW-572016) Ditosylate] | – | – | – | 212 | 255 | 142
CS(=O)(=O)CCNCc1ccc(-c2ccc3ncnc(Nc4ccc(OCc5cccc(F)c5)c(Cl)c4)c3c2)o1 [Lapatinib] | – | – | – | 207 | 207 | 121
COC(=O)N[C@H](C(=O)N1CC2(CC2)C[C@H]1c1nc(-c2ccc3c(c2)C(F)(F)c2cc(-c4ccc5[nH]c([C@@H]6[C@H]7CC[C@H](C7)N6C(=O)[C@@H](NC(=O)OC)C(C)C)nc5c4)ccc2-3)c[nH]1)C(C)C [Ledipasvir (GS5885)] | 174 | 115 | 144 | – | – | –
Cc1oncc1C(=O)Nc1ccc(C(F)(F)F)cc1 [Leflunomide] | 88 | 80 | 67 | – | – | –
Nc1cccc2c1CN(C1CCC(=O)NC1=O)C2=O (stereo not drawn) [Lenalidomide (CC-5013)] | 87 | 95 | 84 | – | – | –
COc1cc2nccc(Oc3ccc(NC(=O)NC4CC4)c(Cl)c3)c2cc1C(N)=O [Lenvatinib (E7080)] | 96 | 85 | 87 | – | – | –
COC(=O)C1=C(C)NC(C)=C(C(=O)OC(C)(C)CN(C)CCC(c2ccccc2)c2ccccc2)C1c1cccc([N+](=O)[O-])c1.Cl (stereo not drawn) [Lercanidipine (hydrochloride)] | 87 | 101 | 84 | – | – | –
O=C(O)CSc1nnc(Br)n1-c1ccc(C2CC2)c2ccccc12 [Lesinurad] | 90 | 102 | 85 | – | – | –
N#Cc1ccc(C(c2ccc(C#N)cc2)n2cncn2)cc1 [Letrozole] | 94 | 85 | 74 | – | – | –
CC(C)NC[C@H](O)COc1ccc(CCOCC2CC2)cc1.Cl [Levobetaxolol HCl] | – | – | – | 100 | 99 | 69
CCCCN1CCCC[C@H]1C(=O)Nc1c(C)cccc1C [Levobupivacaine HCl] | 91 | 108 | 72 | – | – | –
C[C@H]1COc2c(N3CCN(C)CC3)c(F)cc3c(=O)c(C(=O)O)cn1c23 [Levofloxacin hydrate] | 322 | 306 | 316 | – | – | –
C[C@H]1COc2c(N3CCN(C)CC3)c(F)cc3c(=O)c(C(=O)O)cn1c23 [Levofloxacin] | 264 | 314 | 238 | – | – | –
C#C[C@]1(O)CC[C@H]2[C@@H]3CCC4=CC(=O)CC[C@@H]4[C@H]3CC[C@@]21CC [Levonorgestrel] | 94 | 101 | 78 | – | – | –
C[C@@H]1CC(=O)NN=C1c1ccc(NN=C(C#N)C#N)cc1 [Levosimendan] | 76 | 58 | 69 | – | – | –
CCN1CCC[C@H]1CNC(=O)c1cc(S(N)(=O)=O)ccc1OC [Levosulpiride] | 98 | 103 | 84 | – | – | –

Structure (SMILES) | % Phosphatase Activity (compared to DMSO) PRL-1 (recombinant PRL-1; [1]) [%] | % Phosphatase Activity (compared to DMSO) PRL-2 (recombinant PRL-2; [1]) [%] | % Phosphatase Activity (compared to DMSO) PRL-3 (recombinant PRL-3; [1]) [%] | % Phosphatase Activity (compared to DMSO) PRL-1 (recombinant PRL-1) [%] | % Phosphatase Activity (compared to DMSO) PRL-2 (recombinant PRL-2) [%] | % Phosphatase Activity (compared to DMSO) PRL-3 (recombinant PRL-3) [%]
CC1(C)Cc2c(-c3ccccc3)c(-c3ccc(Cl)cc3)c(CC(=O)O)n2C1 [Licofelone] | 80 | 85 | 69 | – | – | –
CCN(CC)CC(=O)Nc1c(C)cccc1C [Lidocaine hydrochloride] | 97 | 88 | 84 | – | – | –
CC#CCn1c(N2CCC[C@@H](N)C2)nc2c1c(=O)n(Cc1nc(C)c3ccccc3n1)c(=O)n2C [Linagliptin] | 115 | 131 | 100 | – | – | –
CCC[C@@H]1C[C@@H](C(=O)N[C@@H]([C@H]2O[C@H](SC)[C@H](O)[C@@H](O)[C@H]2O)[C@@H](C)O)N(C)C1 [Lincomycin HCl] | 109 | 111 | 76 | – | – | –
CC(=O)NC[C@H]1CN(c2ccc(N3CCOCC3)c(F)c2)C(=O)O1 [Linezolid] | 98 | 97 | 89 | – | – | –
Cc1ccc(F)c(NC(=O)Nc2ccc(-c3cccc4[nH]nc(N)c34)cc2)c1 [Linifanib (ABT-869)] | 133 | 151 | 133 | – | – | –
NCCCC[C@H](N[C@@H](CCc1ccccc1)C(=O)O)C(=O)N1CCC[C@H]1C(=O)O [Lisinopril] | 100 | 86 | 93 | – | – | –
C[C@H](CCC(=O)O)[C@H]1CC[C@H]2[C@@H]3CC[C@@H]4C[C@H](O)CC[C@]4(C)[C@H]3CC[C@]12C [Lithocholic acid] | 82 | 75 | 73 | – | – | –
CCn1cc(C(=O)O)c(=O)c2cc(F)c(N3CCNC(C)C3)c(F)c21 (stereo not drawn) [Lomefloxacin HCl] | 123 | 121 | 110 | – | – | –
COc1ccc(CN2CCN(C(c3ccc(F)cc3)c3ccc(F)cc3)CC2)c(OC)c1OC.Cl.Cl [Lomerizine HCl] | 97 | 118 | 84 | – | – | –
O=C(NC1CCN(CCCCC2(C(=O)NCC(F)(F)F)c3ccccc3-c3ccccc32)CC1)c1ccccc1-c1ccc(C(F)(F)F)cc1 [Lomitapide Mesylate] | 129 | 119 | 125 | – | – | –
O=C(NC1CCN(CCCCC2(C(=O)NCC(F)(F)F)c3ccccc3-c3ccccc32)CC1)c1ccccc1-c1ccc(C(F)(F)F)cc1 [Lomitapide] | 124 | 118 | 117 | – | – | –
O=NN(CCCl)C(=O)NC1CCCCC1 [Lomustine] | 96 | 105 | 94 | – | – | –
NC(=O)N1CCC(CC(=O)N2CCC([C@H]3c4ncc(Br)cc4CCc4cc(Cl)cc(Br)c43)CC2)CC1 [Lonafarnib] | 97 | 103 | 97 | – | – | –
O=C(O)c1nn(Cc2ccc(Cl)cc2Cl)c2ccccc12 [Lonidamine] | 102 | 106 | 85 | – | – | –
CN(C)C(=O)C(CCN1CCC(O)(c2ccc(Cl)cc2)CC1)(c1ccccc1)c1ccccc1 [Loperamide HCl] | 105 | 99 | 81 | – | – | –
Cc1cccc(C)c1OCC(=O)N[C@@H](Cc1ccccc1)[C@@H](O)C[C@H](Cc1ccccc1)NC(=O)[C@H](C(C)C)N1CCCNC1=O [Lopinavir] | 90 | 101 | 62 | – | – | –
CCOC(=O)N1CCC(=C2c3ccc(Cl)cc3CCc3cccnc32)CC1 [Loratadine] | 89 | 90 | 65 | – | – | –
CN1C(C(=O)Nc2ccccn2)=C(O)c2sc(Cl)cc2S1(=O)=O [Lornoxicam] | 73 | 84 | 81 | – | – | –
